Values joined by “and” are separate entries in the source; they are usually repeats but may differ in a detail not shown here. Equal values may be shown once.
Test system: amphetamine-induced hyperactivity in rats
Test: amphetamine-induced hyperactivity model of mania in rats (automated activity monitors)
Assay type: in vivo, Sprague Dawley rats
Details: for Effect on amphetamine-induced locomotor activity versus control (ANOVA) / Effect on amphetamine-induced vertical activity versus control (ANOVA) / Effect on activity levels of rats (summary): 75 mg/kg IP; for Effect on amphetamine-induced locomotor activity versus control (ANOVA) / Effect on amphetamine-induced vertical activity versus control (ANOVA) / Locomotor activity, 10 min: 19 h and 3 h before testing; for Effect on amphetamine-induced locomotor activity versus control (ANOVA) / Effect on amphetamine-induced vertical activity versus control (ANOVA) / Effect on activity levels of rats (summary) / Anti-manic potential from the tested model (conclusion): result in words; for Effect on activity levels of rats (summary): amphetamine-treated rats; for Anti-manic potential from the tested model (conclusion): based on the tested model and doses; for Locomotor activity, 20 min, mean / Vertical activity, 20 min, mean / Locomotor activity, 30 min, mean / Vertical activity, 30 min, mean / Locomotor activity, 10 min, mean / Vertical activity, 10 min, mean / Locomotor activity, 20-10 min, mean / Vertical activity, 20-10 min, mean / Locomotor activity, 30-20 min, mean / Vertical activity, 30-20 min, mean: group mean n=10; for Locomotor activity, 20 min, mean / Vertical activity, 20 min, mean / Locomotor activity, 30 min, mean / Vertical activity, 30 min, mean / Locomotor activity, 10 min, mean / Vertical activity, 10 min, mean / Locomotor activity, 20-10 min, mean / Vertical activity, 20-10 min, mean / Locomotor activity, 30-20 min, mean / Vertical activity, 30-20 min, mean / Locomotor activity, 10 min / Locomotor activity, 20 min / Vertical activity, 20 min / Locomotor activity, 30 min / Vertical activity, 30 min / Vertical activity, 10 min / Locomotor activity, 20-10 min / Vertical activity, 20-10 min / Locomotor activity, 30-20 min / Vertical activity, 30-20 min: 75 mg/kg IP twice, amphetamine 0.5 mg/kg s.c.; for Locomotor activity, 20 min, mean / Vertical activity, 20 min, mean / Locomotor activity, 20 min / Vertical activity, 20 min: cumulative to 20 min; for Locomotor activity, 30 min, mean / Vertical activity, 30 min, mean / Locomotor activity, 30 min / Vertical activity, 30 min: cumulative to 30 min; for Locomotor activity, 10 min, mean / Vertical activity, 10 min, mean / Locomotor activity, 10 min / Vertical activity, 10 min: first 10 min; for Locomotor activity, 20-10 min, mean / Vertical activity, 20-10 min, mean / Locomotor activity, 20-10 min / Vertical activity, 20-10 min: second 10 min interval; for Locomotor activity, 30-20 min, mean / Vertical activity, 30-20 min, mean / Locomotor activity, 30-20 min / Vertical activity, 30-20 min: third 10 min interval; for Locomotor activity, 10 min / Locomotor activity, 20 min / Vertical activity, 20 min / Locomotor activity, 30 min / Vertical activity, 30 min / Vertical activity, 10 min / Locomotor activity, 20-10 min / Vertical activity, 20-10 min / Locomotor activity, 30-20 min / Vertical activity, 30-20 min: individual rat; for Locomotor activity, 20-10 min / Vertical activity, 20-10 min / Locomotor activity, 30-20 min / Vertical activity, 30-20 min: non cumulative
Protocol: Evaluation of possible anti-bipolar effects of compounds 1 to 4 was effected by an amphetamine-induced hyperactivity model of mania in rats. Each of the compounds was examined in a separate experiment and compared with a control group, treated with the same dose of amphetamine.
Twenty Sprague Dawley rats, weighing 200-250 g served for each of the four (4) experiments. Rats were housed in a colony room with constant temperature (22° C.), 12 h light/dark cycle and free access to food and water. Each experiment consisted of two groups (n=10 per group), one group was treated with the compound (1 to 4) and the other with vehicle solution. In experiments 1-4, the drugs were administered intraperitoneally (IP). All experimental procedures were conducted during the light phase of the light/dark cycle.
Amphetamine (0.5 mg/kg, sub-cutaneous (s.c.), diluted in de-ionized water) was injected into all rats (both groups of each experiment) immediately prior to behavioral testing. In experiments 1 to 4, compounds (R)-N-acetyl aminoindan (1); (S)-N-indanyl glycinamide HCl (2); (rac)-N-(2-aminoacetyl)-1-aminoindan HCl (3); and (S)-N-formyl aminoindan (4) were injected twice intraperitoneally (IP) at a dose of 75 mg/kg, 19 h and 3 h prior to behavioral testing in experiments. All compounds were suspended in a 5% methyl cellulose solution. The vehicle solution was administered to the control animals.
Immediately after amphetamine injection, rats were placed in automated activity monitors and their activity levels were scored every 10 minutes in the 30 minute time span for experiments 1 to 4. Activity scores included separate measurements of horizontal (locomotion) and of vertical (rearing) activity.
Repeated ANOVA measurements were used to examine the effects of compounds 1 to 4 on locomotor and on vertical activity. One factor measured the treatment of the rats using compounds 1 to 4 or the control vehicle; the repeated measure factor was time (three 10 minute intervals). Post hoc LSD (least significant difference) tests were used to determine whether significant differences occurred in different time periods, where relevant.

Row | SMILES | Effect on amphetamine-induced locomotor activity versus control (ANOVA) | Effect on amphetamine-induced vertical activity versus control (ANOVA) | Effect on activity levels of rats (summary) | Anti-manic potential from the tested model (conclusion) | Locomotor activity, 20 min, mean [counts] | Vertical activity, 20 min, mean [counts] | Locomotor activity, 30 min, mean [counts] | Vertical activity, 30 min, mean [counts] | Locomotor activity, 10 min, mean [counts] | Vertical activity, 10 min, mean [counts] | Locomotor activity, 20-10 min, mean [counts] | Vertical activity, 20-10 min, mean [counts] | Locomotor activity, 30-20 min, mean [counts] | Vertical activity, 30-20 min, mean [counts] | Locomotor activity, 10 min (HCl) | Locomotor activity, 20 min (HCl) | Vertical activity, 20 min (HCl) | Locomotor activity, 30 min (HCl) | Vertical activity, 30 min (HCl) | Vertical activity, 10 min (HCl) | other results
1 | Cl.NCC(=O)NC1CCc2ccccc21 (racemic) [Compound 3, (rac)-N-(2-aminoacetyl)-1-aminoindan HCl] | significantly reduced locomotor activity | similar, albeit non-significant, effect | reduced the activity levels | show anti-manic potential | 1037 | 32 | 1397.4 | 48.3 | 494.4 | 23.1 | 542.6 | 8.9 | 360.4 | 16.3 | 379 counts and 525 counts and 338 counts and 553 counts and 449 counts and 349 counts and 584 counts and 614 counts and 537 counts and 616 counts | 1214 counts and 1196 counts and 621 counts and 1303 counts and 862 counts and 663 counts and 1104 counts and 1349 counts and 1095 counts and 963 counts | 0 counts and 33 counts and 11 counts and 91 counts and 26 counts and 5 counts and 66 counts (2×) and 1 counts and 21 counts | 1678 counts and 1507 counts and 691 counts and 1619 counts and 1112 counts and 917 counts and 1576 counts and 1810 counts and 1758 counts and 1306 counts | 1 counts and 35 counts (2×) and 11 counts and 101 counts and 5 counts and 75 counts and 100 counts and 38 counts and 82 counts | 0 counts and 17 counts and 7 counts and 27 counts and 11 counts and 5 counts and 36 counts and 58 counts and 16 counts and 54 counts | Locomotor activity, 20-10 min (HCl): 835 counts and 671 counts and 283 counts and 750 counts and 413 counts and 314 counts and 520 counts and 735 counts and 558 counts and 347 counts; Vertical activity, 20-10 min (HCl): 0 counts (2×) and 16 counts and 4 counts and 64 counts and 15 counts and 30 counts and −57 counts and 5 counts and 12 counts; Locomotor activity, 30-20 min (HCl): 464 counts and 311 counts and 70 counts and 316 counts and 250 counts and 254 counts and 472 counts and 461 counts and 663 counts and 343 counts; Vertical activity, 30-20 min (HCl): 1 counts and 2 counts and 0 counts (2×) and 10 counts and 9 counts (2×) and 99 counts and 17 counts and 16 counts
2 | CC(=O)N[C@@H]1CCc2ccccc21 [Compound 1, (R)-N-acetyl aminoindan] | significantly reduced locomotion |  | reduced the activity levels | show anti-manic potential | 945.8 | 22.5 | 1395.6 | 33.8 | 545.3 | 14.2 | 400.5 | 8.3 | 449.8 | 11.3 |  |  |  |  |  |  | Locomotor activity, 10 min: 600 counts and 448 counts and 718 counts and 740 counts and 570 counts and 426 counts and 395 counts and 462 counts and 681 counts and 413 counts; Locomotor activity, 20 min: 930 counts and 677 counts and 1125 counts and 1026 counts and 1147 counts and 802 counts and 800 counts and 794 counts and 1361 counts and 796 counts; Vertical activity, 20 min: 34 counts and 12 counts (2×) and 18 counts and 29 counts and 37 counts and 28 counts and 11 counts and 39 counts and 5 counts; Locomotor activity, 30 min: 1436 counts and 1027 counts and 1653 counts and 1317 counts and 1776 counts and 1230 counts and 1053 counts and 1150 counts and 2064 counts and 1250 counts; Vertical activity, 30 min: 62 counts and 18 counts and 20 counts and 31 counts and 53 counts and 38 counts and 12 counts and 21 counts and 76 counts and 7 counts; Vertical activity, 10 min: 27 counts and 9 counts and 16 counts (2×) and 29 counts and 20 counts and 5 counts and 10 counts and 6 counts and 4 counts; Locomotor activity, 20-10 min: 330 counts and 229 counts and 407 counts and 286 counts and 577 counts and 376 counts and 405 counts and 332 counts and 680 counts and 383 counts; Vertical activity, 20-10 min: 7 counts (2×) and 3 counts and 2 counts and 0 counts and 17 counts and 12 counts and 1 counts (2×) and 33 counts; Locomotor activity, 30-20 min: 506 counts and 350 counts and 528 counts and 291 counts and 629 counts and 428 counts and 253 counts and 356 counts and 703 counts and 454 counts; Vertical activity, 30-20 min: 28 counts and 6 counts and 2 counts (3×) and 16 counts and 10 counts (2×) and 0 counts and 37 counts
3 | Cl.NCC(=O)N[C@H]1CCc2ccccc21 [Compound 2, (S)-N-indanyl glycinamide HCl] | did not have a significant effect | significantly increased the level of vertical activity | surprisingly increased activity | does not show anti-manic potential | 1277.9 | 96.3 | 1740.5 | 125 | 626 | 49.3 | 651.9 | 47 | 462.6 | 28.7 | 531 counts and 603 counts and 604 counts and 619 counts and 663 counts (2×) and 616 counts and 670 counts and 643 counts and 648 counts | 1096 counts and 1197 counts and 1334 counts and 1140 counts and 1525 counts and 1508 counts and 1366 counts and 1272 counts and 1325 counts and 1016 counts | 51 counts and 133 counts and 62 counts and 84 counts and 101 counts and 236 counts and 118 counts and 50 counts and 70 counts and 58 counts | 1547 counts and 1606 counts and 1964 counts and 1598 counts and 1908 counts and 2038 counts and 1670 counts and 1608 counts and 2047 counts and 1419 counts | 75 counts and 168 counts and 98 counts and 96 counts and 104 counts and 321 counts and 126 counts and 58 counts and 116 counts and 88 counts | 32 counts and 82 counts and 31 counts and 38 counts (3×) and 95 counts and 66 counts and 30 counts and 43 counts | Locomotor activity, 20-10 min (HCl): 565 counts and 594 counts and 730 counts and 521 counts and 862 counts and 892 counts and 696 counts and 629 counts and 677 counts and 353 counts; Vertical activity, 20-10 min (HCl): 19 counts and 51 counts and 31 counts and 46 counts and 63 counts and 141 counts and 52 counts and 12 counts and 40 counts and 15 counts; Locomotor activity, 30-20 min (HCl): 451 counts and 409 counts and 630 counts and 458 counts and 383 counts and 530 counts and 304 counts and 336 counts and 722 counts and 403 counts; Vertical activity, 30-20 min (HCl): 24 counts and 35 counts and 36 counts and 12 counts and 3 counts and 85 counts and 8 counts (2×) and 46 counts and 30 counts

From US6492426B1, “Use of 1-aminoindan derivatives for treatment of mania in bipolar mood disorder” (priority 1999, dated 2002)
